Measurements: patent US20170240511A1 (MERCK SHARP & DOHME CORP., priority 2014, published 2017)

Molecular target: T1, Human HIF-PHD2 (Homo sapiens, UniProt Q9GZT9)
T1 construct: FLAG-tagged full length PHD2 expressed in and purified from baculovirus-infected Sf9 cells; FLAG; made in house; host or cells: baculovirus-infected Sf9 cells
Assay: HIF-PHD2 inhibition assay: time resolved fluorescence detection of HIF peptide hydroxylation
Type: biochemical
Settings: FLAG-tagged full length PHD2; 0.2 μM 2-oxoglutarate, 0.5 μM HIF-1α peptide; 45 minutes at room temperature
Method: To each well of a 384-well plate, 1 μL of test compounds in DMSO (final concentration ranging from 0.3 nM to 10 μM) were added into 20 μl of assay buffer (50 mM Tris pH 7.4/0.01% Tween-20/0.1 mg/ml bovine serum albumin/10 μM ferrous sulfate/1 mM sodium ascorbate/20 μg/ml catalase) containing 0.15 μg/ml FLAG-tagged full length PHD2 expressed in and purified from baculovirus-infected Sf9 cells. After a 5 min preincubation at room temperature, the enzymatic reactions were initiated by the addition of 4 μL of substrates final concentrations of 0.2 μM 2-oxoglutarate and 0.5 μM HIF-la peptide biotinyl-[…] […] After incubation for 45 minutes at room temperature, the reactions were terminated by the addition of a 25 μL quench/detection mix to a final concentration of 1 mM ortho-phenanthroline, 0.1 mM EDTA, 0.5 nM anti-(His)6 LANCE reagent (Perkin-Elmer Life Sciences), 100 nM AF647-labeled streptavidin (Invitrogen), and 2 μg/ml (His)6-VHL complex {S. Tan Protein Expr. Purif. […] Inhibition of the catalytic activity of HIF-PHD1 and HIF-PHD3 can be determined similarly, except for HIF-PHD3, final concentrations of 4 μM 2-oxoglutarate is used during the reaction.

T1 sequence (Q9GZT9 whole entry): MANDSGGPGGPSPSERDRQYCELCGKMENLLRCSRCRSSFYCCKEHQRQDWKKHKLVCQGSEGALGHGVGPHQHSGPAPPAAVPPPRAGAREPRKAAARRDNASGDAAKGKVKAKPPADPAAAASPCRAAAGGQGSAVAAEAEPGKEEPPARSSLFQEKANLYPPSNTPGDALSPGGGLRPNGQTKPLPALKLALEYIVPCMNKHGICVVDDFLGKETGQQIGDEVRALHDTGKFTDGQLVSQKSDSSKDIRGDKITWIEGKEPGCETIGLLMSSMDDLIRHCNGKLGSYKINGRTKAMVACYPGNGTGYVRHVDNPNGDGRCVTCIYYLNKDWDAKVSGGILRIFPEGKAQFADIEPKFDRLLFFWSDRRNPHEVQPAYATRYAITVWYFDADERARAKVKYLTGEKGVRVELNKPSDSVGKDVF

IC50 [nM]	SMILES
1.28	O=C(NCC(O)C(=O)O)c1cc(O)c(C(=O)NC(c2ccccc2)c2ccccc2)cn1 (stereo not shown) [Example 13, 3-(5-(benzhydrylcarbamoyl)-4-hydroxypicolinamido)-2-hydroxypropanoic acid]
1.02	O=C(O)CCCNC(=O)c1cc(O)c(C(=O)NC(c2ccccc2)c2ccccc2)cn1 [Example 12, 4-(5-(benzhydrylcarbamoyl)-4-hydroxypicolinamido)butanoic acid]
1.89	CC(CNC(=O)c1cc(O)c(C(=O)NC(c2ccccc2)c2ccccc2)cn1)C(=O)O (stereo not shown) [Example 10, 3-(5-(benzhydrylcarbamoyl)-4-hydroxypicolinamido)-2-methylpropanoic acid]
276	CCOC(=O)C(C)(C)CNC(=O)c1cc(O)c(C(=O)NC(c2ccccc2)c2ccccc2)cn1 [Example 5, ethyl 3-(5-(benzhydrylcarbamoyl)-4-hydroxypicolinamido)-2,2-dimethylpropanoate]
136	COC(=O)C(C)CNC(=O)c1cc(O)c(C(=O)NC(c2ccccc2)c2ccccc2)cn1 (stereo not shown) [Example 3, methyl 3-(5-(benzhydrylcarbamoyl)-4-hydroxypicolinamido)-2-methylpropanoate]
5.24	O=C(NCC1(C(=O)O)CC1)c1cc(O)c(C(=O)NC(c2ccccc2)c2ccccc2)cn1 [Example 11, 1-((5-(benzhydrylcarbamoyl)-4-hydroxypicolinamido)methyl)cyclopropanecarboxylic acid]
3.61	CC(C)(CNC(=O)c1cc(O)c(C(=O)NC(c2ccccc2)c2ccccc2)cn1)C(=O)O [Example 14, 3-(5-(benzhydrylcarbamoyl)-4-hydroxypicolinamido)-2,2-dimethylpropanoic acid]

Further lines, the compound ahead of its results:

SMILES	IC50 [nM]
O=C(NC12CC(C(=O)O)(C1)C2)c1cc(O)c(C(=O)NC(c2ccccc2)c2ccccc2)cn1 [Example 17, 3-(5-(benzhydrylcarbamoyl)-4-hydroxypicolinamido)bicyclo[1.1.1]pentane-1-carboxylic acid]	23.4
CCOC(=O)[C@@H]1C[C@H]1NC(=O)c1cc(O)c(C(=O)NC(c2ccccc2)c2ccccc2)cn1 [Example 7, (1R,2R)-ethyl 2-(5-(benzhydrylcarbamoyl)-4-hydroxypicolinamido)cyclopropanecarboxylate]	37.3
O=C(N[C@@H]1C[C@H]1C(=O)O)c1cc(O)c(C(=O)NC(c2ccccc2)c2ccccc2)cn1 [Example 16, (1R,2R)-2-(5-(benzhydrylcarbamoyl)-4-hydroxypicolinamido)cyclopropanecarboxylic acid]	6.55
O=C(N[C@H]1C[C@H](C(=O)O)C1)c1cc(O)c(C(=O)NC(c2ccccc2)c2ccccc2)cn1 [Example 3]	1.64
CCOC(=O)C1(CNC(=O)c2cc(O)c(C(=O)NC(c3ccc(Cl)cc3)c3ccc(Cl)cc3)cn2)CC1 [Example 5, ethyl 1-((5-((bis(4-chlorophenyl)methyl)carbamoyl)-4-hydroxypicolinamido)methyl) cyclopropanecarboxylate]	184
CCOC(=O)[C@H]1C[C@@H]1NC(=O)c1cc(O)c(C(=O)NC(c2ccccc2)c2ccccc2)cn1 [Example 6, (1S,2S)-ethyl 2-(5-(benzhydrylcarbamoyl)-4-hydroxypicolinamido)cyclopropanecarboxylate]	89.1
CCOC(=O)CCNC(=O)c1cc(O)c(C(=O)NC(c2ccccc2)c2ccccc2)cn1 [Example 2, ethyl 3-(5-(benzhydrylcarbamoyl)-4-hydroxypicolinamido)propanoate]	92.9
O=C(N[C@H]1C[C@@H]1C(=O)O)c1cc(O)c(C(=O)NC(c2ccccc2)c2ccccc2)cn1 [Example 15, (1S,2S)-2-(5-(benzhydrylcarbamoyl)-4-hydroxypicolinamido)cyclopropanecarboxylic acid]	6.69
O=C(O)c1cnn(-c2cc(O)c(C(=O)NC(c3ccccc3)c3ccccc3)cn2)c1 [Example 1, 1-(5-(Benzhydrylcarbamoyl)-4-hydroxypyridin-2-yl)-1H-pyrazole-4-carboxylic acid]	0.875
